# From ChEMBL document CHEMBL2385069, “Thiourea derivatives incorporating a hippuric acid moiety: synthesis and evaluation of antibacterial and antifungal activities” (2013)
# Key:
# Bacillus subtilis [1] = experiment: Antibacterial activity against Bacillus subtilis ATCC 6633 after 24 hrs by two fold serial dilution technique; assay type: functional; conditions: ATCC 6633, 24 h
# Bacillus subtilis [2] = experiment: Ratio of Ciprofloxacin MIC to compound MIC for Bacillus subtilis ATCC 6633; assay type: functional
# Candida albicans [3] = experiment: Antifungal activity against Candida albicans NRRLY-477 assessed as diameter of inhibition zone at 1 mg/ml after 24 hrs by agar well diffusion method; assay type: functional; conditions: NRRLY-477, 24 h, read-out: DIZ
# Bacillus subtilis [4] = experiment: Antibacterial activity against Bacillus subtilis ATCC 6633 assessed as diameter of inhibition zone at 1 mg/ml after 24 hrs by agar well diffusion method; assay type: functional; conditions: ATCC 6633, 24 h, read-out: DIZ
# Escherichia coli [5] = experiment: Antibacterial activity against Escherichia coli ATCC 25922 after 24 hrs by two fold serial dilution technique; assay type: functional; conditions: ATCC 25922, 24 h
# Micrococcus luteus [6] = experiment: Antibacterial activity against Sarcina lutea assessed as diameter of inhibition zone at 1 mg/ml after 24 hrs by agar well diffusion method; assay type: functional; conditions: read-out: DIZ
# Candida albicans [7] = experiment: Antifungal activity against Candida albicans NRRLY-477 after 24 hrs by two fold serial dilution technique; assay type: functional; conditions: NRRLY-477, 24 h
# Priestia megaterium [8] = experiment: Antibacterial activity against Bacillus megaterium ATCC 9885 after 24 hrs by two fold serial dilution technique; assay type: functional; conditions: ATCC 9885, 24 h
# Proteus vulgaris [9] = experiment: Antibacterial activity against Proteus vulgaris after 24 hrs by two fold serial dilution technique; assay type: functional
# Pseudomonas aeruginosa [10] = experiment: Antibacterial activity against Pseudomonas aeruginosa ATCC 27953 assessed as diameter of inhibition zone at 1 mg/ml after 24 hrs by agar well diffusion method; assay type: functional; conditions: ATCC 27953, 24 h, read-out: DIZ
# Klebsiella pneumoniae [11] = experiment: Antibacterial activity against Klebsiella pneumoniae ATCC 13883 assessed as diameter of inhibition zone at 1 mg/ml after 24 hrs by agar well diffusion method; assay type: functional; conditions: ATCC 13883, 24 h, read-out: DIZ
# Saccharomyces cerevisiae [12] = experiment: Antifungal activity against Saccharomyces cerevisiae assessed as diameter of inhibition zone at 1 mg/ml after 24 hrs by agar well diffusion method; assay type: functional; conditions: read-out: DIZ
# Escherichia coli [13] = experiment: Antibacterial activity against Escherichia coli ATCC 25922 assessed as diameter of inhibition zone at 1 mg/ml after 24 hrs by agar well diffusion method; assay type: functional; conditions: ATCC 25922, 24 h, read-out: DIZ
# Micrococcus luteus [14] = experiment: Antibacterial activity against Sarcina lutea after 24 hrs by two fold serial dilution technique; assay type: functional
# Pseudomonas aeruginosa [15] = experiment: Antibacterial activity against Pseudomonas aeruginosa ATCC 27953 after 24 hrs by two fold serial dilution technique; assay type: functional; conditions: ATCC 27953, 24 h
# Proteus vulgaris [16] = experiment: Antibacterial activity against Proteus vulgaris assessed as diameter of inhibition zone at 1 mg/ml after 24 hrs by agar well diffusion method; assay type: functional; conditions: read-out: DIZ
# Staphylococcus aureus [17] = experiment: Antibacterial activity against Staphylococcus aureus ATCC 29213 after 24 hrs by two fold serial dilution technique; assay type: functional; conditions: ATCC 29213, 24 h
# Staphylococcus aureus [18] = experiment: Antibacterial activity against Staphylococcus aureus ATCC 29213 assessed as diameter of inhibition zone at 1 mg/ml after 24 hrs by agar well diffusion method; assay type: functional; conditions: ATCC 29213, 24 h, read-out: DIZ
# Candida albicans [19] = experiment: Ratio of ketoconazole MIC to compound MIC for Candida albicans NRRLY-477; assay type: functional
# Klebsiella pneumoniae [20] = experiment: Antibacterial activity against Klebsiella pneumoniae ATCC 13883 after 24 hrs by two fold serial dilution technique; assay type: functional; conditions: ATCC 13883, 24 h
# Saccharomyces cerevisiae [21] = experiment: Antifungal activity against Saccharomyces cerevisiae after 24 hrs by two fold serial dilution technique; assay type: functional
# Priestia megaterium [22] = experiment: Antibacterial activity against Bacillus megaterium ATCC 9885 assessed as diameter of inhibition zone at 1 mg/ml after 24 hrs by agar well diffusion method; assay type: functional; conditions: ATCC 9885, 24 h, read-out: DIZ
# Pseudomonas aeruginosa [23] = experiment: Ratio of Ciprofloxacin MIC to compound MIC for Pseudomonas aeruginosa ATCC 27953; assay type: functional
# Staphylococcus aureus [24] = experiment: Ratio of Ciprofloxacin MIC to compound MIC for Staphylococcus aureus ATCC 29213; assay type: functional
# Pseudomonas aeruginosa [25] = experiment: microbe, parasite or virus in culture; conditions: ATCC 27953, 24 h, read-out: DIZ
# Description: Antibacterial activity against Pseudomonas aeruginosa ATCC 27953 assessed as diameter of inhibition zone at 0.5 mg/ml after 24 hrs by agar well diffusion method
# Micrococcus luteus [26] = experiment: Antibacterial activity against Sarcina lutea assessed as diameter of inhibition zone at 0.5 mg/ml after 24 hrs by agar well diffusion method; assay type: functional; conditions: read-out: DIZ
# Klebsiella pneumoniae [27] = experiment: microbe, parasite or virus in culture; conditions: ATCC 13883, 24 h, read-out: DIZ
# Description: Antibacterial activity against Klebsiella pneumoniae ATCC 13883 assessed as diameter of inhibition zone at 0.5 mg/ml after 24 hrs by agar well diffusion method
# Proteus vulgaris [28] = experiment: Antibacterial activity against Proteus vulgaris assessed as diameter of inhibition zone at 0.5 mg/ml after 24 hrs by agar well diffusion method; assay type: functional; conditions: read-out: DIZ
# Staphylococcus aureus [29] = experiment: microbe, parasite or virus in culture; conditions: ATCC 29213, 24 h, read-out: DIZ
# Description: Antibacterial activity against Staphylococcus aureus ATCC 29213 assessed as diameter of inhibition zone at 0.5 mg/ml after 24 hrs by agar well diffusion method
# Priestia megaterium [30] = experiment: Antibacterial activity against Bacillus megaterium ATCC 9885 assessed as diameter of inhibition zone at 0.5 mg/ml after 24 hrs by agar well diffusion method; assay type: functional; conditions: ATCC 9885, 24 h, read-out: DIZ
# Bacillus subtilis [31] = experiment: microbe, parasite or virus in culture; conditions: ATCC 6633, 24 h, read-out: DIZ
# Description: Antibacterial activity against Bacillus subtilis ATCC 6633 assessed as diameter of inhibition zone at 0.5 mg/ml after 24 hrs by agar well diffusion method
# Saccharomyces cerevisiae [32] = experiment: Antifungal activity against Saccharomyces cerevisiae assessed as diameter of inhibition zone at 0.5 mg/ml after 24 hrs by agar well diffusion method; assay type: functional; conditions: read-out: DIZ
# Candida albicans [33] = experiment: Antifungal activity against Candida albicans NRRLY-477 assessed as diameter of inhibition zone at 0.5 mg/ml after 24 hrs by agar well diffusion method; assay type: functional; conditions: NRRLY-477, 24 h, read-out: DIZ
SMILES,MIC (Bacillus subtilis [1]),MIC (Escherichia coli [5]),MIC (Candida albicans [7]),MIC (Priestia megaterium [8]),MIC (Proteus vulgaris [9]),MIC (Micrococcus luteus [14]),MIC (Pseudomonas aeruginosa [15]),MIC (Staphylococcus aureus [17]),MIC (Klebsiella pneumoniae [20]),MIC (Saccharomyces cerevisiae [21]),zone of inhibition at 1000 µg/mL (Candida albicans [3]),zone of inhibition at 1000 µg/mL (Bacillus subtilis [4]),zone of inhibition at 1000 µg/mL (Micrococcus luteus [6]),zone of inhibition at 1000 µg/mL (Pseudomonas aeruginosa [10]),zone of inhibition at 1000 µg/mL (Klebsiella pneumoniae [11]),zone of inhibition at 1000 µg/mL (Saccharomyces cerevisiae [12]),zone of inhibition at 1000 µg/mL (Escherichia coli [13]),zone of inhibition at 1000 µg/mL (Proteus vulgaris [16]),zone of inhibition at 1000 µg/mL (Staphylococcus aureus [18]),zone of inhibition at 1000 µg/mL (Priestia megaterium [22]),other results
Nc1n[nH]c(NC(=S)Nc2ccc(C(=O)NCC(=O)O)cc2)c1/N=N/c1ccc(Cl)cc1,3.12 µg/mL,6.25 µg/mL,3.12 µg/mL,6.25 µg/mL,6.25 µg/mL,12.5 µg/mL,12.5 µg/mL,6.25 µg/mL,12.5 µg/mL,12.5 µg/mL,30 mm,32 mm,30 mm,28 mm,22 mm,25 mm,28 mm,28 mm,28 mm,27 mm,Ratio (Bacillus subtilis [2]): 2; Ratio (Candida albicans [19]): 2
O=C(O)c1cn(C2CC2)c2cc(N3CCNCC3)c(F)cc2c1=O [CIPROFLOXACIN],6.25 µg/mL,12.5 µg/mL,,6.25 µg/mL,12.5 µg/mL,12.5 µg/mL,,,12.5 µg/mL,,,,,,,,,,,,zone of inhibition at 500 µg/mL (Pseudomonas aeruginosa [25]): 24 mm; zone of inhibition at 500 µg/mL (Micrococcus luteus [26]): 20 mm; zone of inhibition at 500 µg/mL (Klebsiella pneumoniae [27]): 25 mm; zone of inhibition at 500 µg/mL (Proteus vulgaris [28]): 23 mm; zone of inhibition at 500 µg/mL (Staphylococcus aureus [29]): 20 mm; zone of inhibition at 500 µg/mL (Priestia megaterium [30]): 24 mm; zone of inhibition at 500 µg/mL (Bacillus subtilis [31]): 22 mm
CC(=O)N1CCN(c2ccc(OCC3COC(Cn4ccnc4)(c4ccc(Cl)cc4Cl)O3)cc2)CC1 (stereo not given) [KETOCONAZOLE],,,6.25 µg/mL,,,,,,,3.12 µg/mL,,,,,,,,,,,zone of inhibition at 500 µg/mL (Saccharomyces cerevisiae [32]): 23 mm; zone of inhibition at 500 µg/mL (Candida albicans [33]): 22 mm

# The next lines start with results.
MIC (Bacillus subtilis [1]),MIC (Escherichia coli [5]),MIC (Candida albicans [7]),MIC (Priestia megaterium [8]),MIC (Proteus vulgaris [9]),MIC (Micrococcus luteus [14]),MIC (Pseudomonas aeruginosa [15]),MIC (Staphylococcus aureus [17]),MIC (Klebsiella pneumoniae [20]),MIC (Saccharomyces cerevisiae [21]),SMILES,zone of inhibition at 1000 µg/mL (Candida albicans [3]),zone of inhibition at 1000 µg/mL (Bacillus subtilis [4]),zone of inhibition at 1000 µg/mL (Micrococcus luteus [6]),zone of inhibition at 1000 µg/mL (Pseudomonas aeruginosa [10]),zone of inhibition at 1000 µg/mL (Klebsiella pneumoniae [11]),zone of inhibition at 1000 µg/mL (Saccharomyces cerevisiae [12]),zone of inhibition at 1000 µg/mL (Escherichia coli [13]),zone of inhibition at 1000 µg/mL (Proteus vulgaris [16]),zone of inhibition at 1000 µg/mL (Staphylococcus aureus [18]),zone of inhibition at 1000 µg/mL (Priestia megaterium [22]),other results
3.12 µg/mL,6.25 µg/mL,3.12 µg/mL,3.12 µg/mL,6.25 µg/mL,12.5 µg/mL,12.5 µg/mL,6.25 µg/mL,6.25 µg/mL,6.25 µg/mL,O=C(O)CNC(=O)c1ccc(NC(=S)Nc2cccc(Br)c2)cc1,30 mm,30 mm,20 mm,22 mm,30 mm,28 mm,27 mm,24 mm,31 mm,32 mm,Ratio (Bacillus subtilis [2]): 2; Ratio (Candida albicans [19]): 2
12.5 µg/mL,12.5 µg/mL,12.5 µg/mL,12.5 µg/mL,12.5 µg/mL,12.5 µg/mL,12.5 µg/mL,50 µg/mL,12.5 µg/mL,25 µg/mL,O=C(O)CNC(=O)c1ccc(NC(=S)Nc2cccc(F)c2)cc1,22 mm,18 mm,20 mm,21 mm,23 mm,17 mm,20 mm,25 mm,20 mm,27 mm,
12.5 µg/mL,6.25 µg/mL,12.5 µg/mL,12.5 µg/mL,12.5 µg/mL,12.5 µg/mL,3.12 µg/mL,3.12 µg/mL,12.5 µg/mL,3.12 µg/mL,O=C(O)CNC(=O)c1ccc(NC(=S)Nc2ccc(S(=O)(=O)Nc3ncccn3)cc2)cc1,25 mm,26 mm,25 mm,34 mm,17 mm,30 mm,32 mm,21 mm,32 mm,27 mm,Ratio (Pseudomonas aeruginosa [23]): 4; Ratio (Staphylococcus aureus [24]): 2
3.12 µg/mL,6.25 µg/mL,3.12 µg/mL,3.12 µg/mL,12.5 µg/mL,12.5 µg/mL,12.5 µg/mL,6.25 µg/mL,12.5 µg/mL,12.5 µg/mL,O=C(O)CNC(=O)c1ccc(NC(=S)NNS(=O)(=O)c2ccccc2)cc1,32 mm,30 mm,20 mm,23 mm,25 mm,24 mm,29 mm,20 mm,32 mm,31 mm,Ratio (Bacillus subtilis [2]): 2; Ratio (Candida albicans [19]): 2
